Source: US20230055237A1, “COMPOUNDS AND METHODS FOR THE TREATMENT OF CYSTIC FIBROSIS” (Flatley Discovery Lab, LLC, priority 2019, published 2023)

Target: T1, CFTR (Homo sapiens, UniProt P13569, DEL508-508)
T1 construct: Primary CF airway epithelial cells were obtained from the UNC Cystic Fibrosis Tissue Procurement and Cell Culture Core; host or cells: primary CF airway epithelial cells, differentiated at the air-liquid interface
Test: Equivalent current assay in primary CF airway epithelial cells (NAUC, combination with 1st site corrector FDL169 or VX-809)
Assay type: cell-based
Settings: 37° C., 24 h; for Nauc @ 3 μM: test compound 3 μM in combination with 1st site corrector VX-809 (3 μM); for Nauc @ 10 μM: test compound 10 μM in combination with 1st site corrector VX-809 (3 μM); for Nauc @ 1 μM: test compound 1 μM in combination with 1st site corrector VX-809 (3 μM)

T1 sequence (P13569 with tags, fused parts or gaps DEL508-508): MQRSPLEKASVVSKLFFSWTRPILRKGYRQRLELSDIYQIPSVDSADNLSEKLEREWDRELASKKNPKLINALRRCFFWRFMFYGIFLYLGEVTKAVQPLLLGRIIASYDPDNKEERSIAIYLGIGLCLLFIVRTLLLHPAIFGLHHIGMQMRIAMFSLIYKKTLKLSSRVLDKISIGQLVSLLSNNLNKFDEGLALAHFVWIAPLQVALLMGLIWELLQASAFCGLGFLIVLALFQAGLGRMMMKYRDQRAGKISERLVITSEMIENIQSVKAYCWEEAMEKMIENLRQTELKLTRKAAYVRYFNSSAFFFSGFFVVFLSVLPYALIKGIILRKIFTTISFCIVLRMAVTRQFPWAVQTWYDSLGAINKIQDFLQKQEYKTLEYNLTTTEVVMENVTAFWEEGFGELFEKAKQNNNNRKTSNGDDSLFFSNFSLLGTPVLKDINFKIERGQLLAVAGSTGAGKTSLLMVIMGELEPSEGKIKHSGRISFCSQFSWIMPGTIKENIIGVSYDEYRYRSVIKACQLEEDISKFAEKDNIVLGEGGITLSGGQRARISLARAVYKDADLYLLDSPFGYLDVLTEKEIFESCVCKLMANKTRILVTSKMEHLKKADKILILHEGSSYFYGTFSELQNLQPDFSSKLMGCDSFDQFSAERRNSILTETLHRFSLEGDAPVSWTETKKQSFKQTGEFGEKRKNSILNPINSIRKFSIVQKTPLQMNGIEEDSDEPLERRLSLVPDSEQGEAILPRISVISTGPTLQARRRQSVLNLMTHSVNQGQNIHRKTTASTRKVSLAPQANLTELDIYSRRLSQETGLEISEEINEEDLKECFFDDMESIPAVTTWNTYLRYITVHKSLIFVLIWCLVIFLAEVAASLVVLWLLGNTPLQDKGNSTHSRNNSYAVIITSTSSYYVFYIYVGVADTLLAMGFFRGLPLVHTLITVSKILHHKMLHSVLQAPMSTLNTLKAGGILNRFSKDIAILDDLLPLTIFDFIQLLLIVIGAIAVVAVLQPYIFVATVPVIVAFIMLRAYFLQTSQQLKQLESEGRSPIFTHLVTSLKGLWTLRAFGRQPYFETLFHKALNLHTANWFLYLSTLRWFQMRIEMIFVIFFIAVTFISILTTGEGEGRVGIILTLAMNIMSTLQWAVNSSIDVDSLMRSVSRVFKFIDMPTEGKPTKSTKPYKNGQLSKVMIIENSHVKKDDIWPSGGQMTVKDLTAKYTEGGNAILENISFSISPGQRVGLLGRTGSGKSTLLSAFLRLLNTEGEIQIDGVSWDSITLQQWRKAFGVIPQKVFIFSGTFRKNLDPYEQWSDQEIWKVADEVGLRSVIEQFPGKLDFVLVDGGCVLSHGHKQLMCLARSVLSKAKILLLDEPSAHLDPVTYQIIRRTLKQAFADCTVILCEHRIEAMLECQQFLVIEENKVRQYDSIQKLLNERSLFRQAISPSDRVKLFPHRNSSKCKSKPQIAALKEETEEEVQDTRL

SMILES: CC(C)(C)c1cccc(CCNC(=O)C2C3CCCN3C3(C(=O)Nc4c(Cl)cc(Cl)cc43)C2C(=O)O)c1 (stereo not shown) [Example 53]
- Nauc @ 3 μM: +++ (NAUC “+++” refers to an observed NAUC>170% of positive control)
- Nauc @ 10 μM: +++ (NAUC “+++” refers to an observed NAUC>170% of positive control)

SMILES: CC(C)(C)c1cccc(CNC(=O)C2C3CC(F)(F)CN3C3(C(=O)Nc4c(Cl)cc(Cl)cc43)C2C(=O)O)c1 (stereo not shown) [Example 54]
- Nauc @ 3 μM: + (NAUC “+” refers to an observed NAUC <140% of positive control)
- Nauc @ 10 μM: +++ (NAUC “+++” refers to an observed NAUC>170% of positive control)

SMILES: O=C(Nc1cc(C(F)(F)F)cc(C(F)(F)F)n1)C1C2C[C@@](O)(C(F)(F)F)CN2C2(C(=O)Nc3c(Cl)cc(Cl)cc32)C1C(=O)O (stereo partly shown) [Example 55]
- Nauc @ 3 μM: ++ (NAUC “++” refers to an observed NAUC 170-140% of positive control)
- Nauc @ 10 μM: + (NAUC “+” refers to an observed NAUC <140% of positive control)

SMILES: O=C(Nc1cc(Cl)cc(Cl)c1)C1C2C[C@@](O)(C(F)(F)F)CN2C2(C(=O)Nc3c(Cl)cc(Cl)cc32)C1C(=O)O (stereo partly shown) [Example 56]
- Nauc @ 3 μM: +++ (NAUC “+++” refers to an observed NAUC>170% of positive control)
- Nauc @ 10 μM: +++ (NAUC “+++” refers to an observed NAUC>170% of positive control)

SMILES: CN(C(=O)C1C2CC(F)(F)CN2C2(C(=O)Nc3c(Cl)cc(Cl)cc32)C1C(=O)O)c1cc(Cl)cc(Cl)c1 (stereo not shown) [Example 57]
- Nauc @ 3 μM: +++ (NAUC “+++” refers to an observed NAUC>170% of positive control)
- Nauc @ 10 μM: +++ (NAUC “+++” refers to an observed NAUC>170% of positive control)

SMILES: O=C(Nc1cc(Cl)cc(Cl)c1)C1C2C[C@@](O)(C(F)(F)F)CN2C2(C(=O)Nc3c(Cl)cc(Cl)cc32)C1C(=O)O (stereo partly shown) [Example 58]
- Nauc @ 3 μM: + (NAUC “+” refers to an observed NAUC <140% of positive control)
- Nauc @ 10 μM: +++ (NAUC “+++” refers to an observed NAUC>170% of positive control)

SMILES: O=C(Nc1cc(Cl)cc(Cl)c1)C1C2N(CCC2(F)F)C2(C(=O)Nc3c(Cl)cc(Cl)cc32)C1C(=O)O (stereo not shown) [Example 59]
- Nauc @ 3 μM: + (NAUC “+” refers to an observed NAUC <140% of positive control)
- Nauc @ 10 μM: ++ (NAUC “++” refers to an observed NAUC 170-140% of positive control)

SMILES: O=C(Nc1cc(Cl)cc(Cl)c1)C1C2N(CCC2(F)F)C2(C(=O)Nc3c(Cl)cc(Cl)cc32)C1C(=O)O (stereo not shown) [Example 60]
- Nauc @ 3 μM: +++ (NAUC “+++” refers to an observed NAUC>170% of positive control)
- Nauc @ 10 μM: +++ (NAUC “+++” refers to an observed NAUC>170% of positive control)

SMILES: Cc1ccccc1C(F)(F)C1NC2(C(=O)Nc3c(Cl)cc(Cl)cc32)C(C(=O)O)C1C(=O)Nc1cc(Cl)cc(Cl)c1 (stereo not shown) [Example 61]
- Nauc @ 3 μM: +++ (NAUC “+++” refers to an observed NAUC>170% of positive control)
- Nauc @ 10 μM: +++ (NAUC “+++” refers to an observed NAUC>170% of positive control)

SMILES: Cc1cccc(C(F)(F)C2NC3(C(=O)Nc4c(Cl)cc(Cl)cc43)C(C(=O)O)C2C(=O)Nc2cc(Cl)cc(Cl)c2)c1 (stereo not shown) [Example 62]
- Nauc @ 10 μM: +++ (NAUC “+++” refers to an observed NAUC>170% of positive control)

SMILES: O=C(Nc1cc(Cl)cc(Cl)c1)C1C(C(F)(F)c2ccccc2Cl)NC2(C(=O)Nc3c(Cl)cc(Cl)cc32)C1C(=O)O (stereo not shown) [Example 63]
- Nauc @ 10 μM: +++ (NAUC “+++” refers to an observed NAUC>170% of positive control)

SMILES: CC(C)(C)c1cccc(C(C)(C)CNC(=O)C2C3CC(F)(F)CN3C3(C(=O)Nc4c(Cl)cc(Cl)cc43)C2C(=O)O)c1 (stereo not shown) [Example 64]
- Nauc @ 10 μM: +++ (NAUC “+++” refers to an observed NAUC>170% of positive control)

SMILES: O=C(Nc1cc(Cl)cc(Cl)c1)C1C(C(F)(F)c2ccncc2)NC2(C(=O)Nc3c(Cl)cc(Cl)cc32)C1C(=O)O (stereo not shown) [Example 66.9a, 5,7-dichloro-4′-((3,5-dichlorophenyl)carbamoyl)-5′-(difluoro(pyridin-4-yl)methyl)-2-oxospiro[indoline-3,2′-pyrrolidine]-3′-carboxylic acid]
- Nauc @ 10 μM: + (NAUC “+” refers to an observed NAUC <140% of positive control)

SMILES: O=C(Nc1cc(Cl)cc(Cl)c1)C1C(C(F)(F)c2ccc(Cl)cc2)NC2(C(=O)Nc3c(Cl)cc(Cl)cc32)C1C(=O)O (stereo not shown) [Example 67.9a, 5,7-dichloro-5,7′-((4-chlorophenyl)difluoromethyl)-4′-((3,5-dichlorophenyl)carbamoyl)-2-oxospiro[indoline-3,2′-pyrrolidine]-3′-carboxylic acid]
- Nauc @ 10 μM: + (NAUC “+” refers to an observed NAUC <140% of positive control)

SMILES: O=C(Nc1cc(Cl)cc(Cl)c1)C1C(C(F)(F)c2ccc(Cl)cc2)NC2(C(=O)Nc3c(Cl)cc(Cl)cc32)C1C(=O)O (stereo not shown) [Example 67.9b, 5,7-dichloro-5,7′-((4-chlorophenyl)difluoromethyl)-4′-((3,5-dichlorophenyl)carbamoyl)-2-oxospiro[indoline-3,2′-pyrrolidine]-3′-carboxylic acid]
- Nauc @ 1 μM: + (NAUC “+” refers to an observed NAUC <140% of positive control)
- Nauc @ 3 μM: ++ (NAUC “++” refers to an observed NAUC 170-140% of positive control)
- Nauc @ 10 μM: +++ (NAUC “+++” refers to an observed NAUC>170% of positive control)

SMILES: O=C(Nc1cc(Cl)cc(Cl)c1)C1C(C(F)(F)c2cccc(Cl)c2)NC2(C(=O)Nc3c(Cl)cc(Cl)cc32)C1C(=O)O (stereo not shown) [Example 68.a]
- Nauc @ 10 μM: + (NAUC “+” refers to an observed NAUC <140% of positive control)

SMILES: O=C(Nc1cc(Cl)cc(Cl)c1)C1C(C(F)(F)c2cccc(Cl)c2)NC2(C(=O)Nc3c(Cl)cc(Cl)cc32)C1C(=O)O (stereo not shown) [Example 68.b]
- Nauc @ 10 μM: + (NAUC “+” refers to an observed NAUC <140% of positive control)

SMILES: O=C(Nc1cc(Cl)cc(Cl)c1)C1C(C(F)(F)c2cccc(Cl)c2)NC2(C(=O)Nc3c(Cl)cc(Cl)cc32)C1C(=O)O (stereo not shown) [Example 68.c]
- Nauc @ 1 μM: + (NAUC “+” refers to an observed NAUC <140% of positive control)
- Nauc @ 3 μM: +++ (NAUC “+++” refers to an observed NAUC>170% of positive control)
- Nauc @ 10 μM: +++ (NAUC “+++” refers to an observed NAUC>170% of positive control)

SMILES: O=C(Nc1cc(Cl)cc(Cl)c1)C1C(C(F)(F)c2ccccc2C(F)(F)F)NC2(C(=O)Nc3c(Cl)cc(Cl)cc32)C1C(=O)O (stereo not shown) [Example 69.a]
- Nauc @ 10 μM: + (NAUC “+” refers to an observed NAUC <140% of positive control)

SMILES: O=C(Nc1cc(Cl)cc(Cl)c1)C1C(C(F)(F)c2ccccc2C(F)(F)F)NC2(C(=O)Nc3c(Cl)cc(Cl)cc32)C1C(=O)O (stereo not shown) [Example 69.b]
- Nauc @ 1 μM: ++ (NAUC “++” refers to an observed NAUC 170-140% of positive control)
- Nauc @ 3 μM: +++ (NAUC “+++” refers to an observed NAUC>170% of positive control)
- Nauc @ 10 μM: ++ (NAUC “++” refers to an observed NAUC 170-140% of positive control)

SMILES: O=C(Nc1cc(Cl)cc(Cl)c1)C1C(C(F)(F)c2cccc(C(F)(F)F)c2)NC2(C(=O)Nc3c(Cl)cc(Cl)cc32)C1C(=O)O (stereo not shown) [Example 70.a]
- Nauc @ 10 μM: + (NAUC “+” refers to an observed NAUC <140% of positive control)

SMILES: O=C(Nc1cc(Cl)cc(Cl)c1)C1C(C(F)(F)c2cccc(C(F)(F)F)c2)NC2(C(=O)Nc3c(Cl)cc(Cl)cc32)C1C(=O)O (stereo not shown) [Example 70.b]
- Nauc @ 10 μM: + (NAUC “+” refers to an observed NAUC <140% of positive control)

SMILES: O=C(Nc1cc(Cl)cc(Cl)c1)C1C(C(F)(F)c2cccc(C(F)(F)F)c2)NC2(C(=O)Nc3c(Cl)cc(Cl)cc32)C1C(=O)O (stereo not shown) [Example 70.c]
- Nauc @ 1 μM: + (NAUC “+” refers to an observed NAUC <140% of positive control)
- Nauc @ 3 μM: + (NAUC “+” refers to an observed NAUC <140% of positive control)
- Nauc @ 10 μM: +++ (NAUC “+++” refers to an observed NAUC>170% of positive control)

SMILES: Cc1ccc(C(F)(F)C2NC3(C(=O)Nc4c(Cl)cc(Cl)cc43)C(C(=O)O)C2C(=O)Nc2cc(Cl)cc(Cl)c2)cc1 (stereo not shown) [Example 71.a]
- Nauc @ 10 μM: +++ (NAUC “+++” refers to an observed NAUC>170% of positive control)

SMILES: O=C(Nc1cc(Cl)cc(Cl)c1)C1C(C(F)(F)c2ccccn2)NC2(C(=O)Nc3c(Cl)cc(Cl)cc32)C1C(=O)O (stereo not shown) [Example 72.a]
- Nauc @ 10 μM: + (NAUC “+” refers to an observed NAUC <140% of positive control)

SMILES: O=C(Nc1cc(Cl)cc(Cl)c1)C1C(C(F)(F)c2ccccn2)NC2(C(=O)Nc3c(Cl)cc(Cl)cc32)C1C(=O)O (stereo not shown) [Example 72.b]
- Nauc @ 10 μM: + (NAUC “+” refers to an observed NAUC <140% of positive control)

SMILES: O=C(Nc1cc(Cl)cc(Cl)c1)C1C(C(F)(F)c2ccccn2)NC2(C(=O)Nc3c(Cl)cc(Cl)cc32)C1C(=O)O (stereo not shown) [Example 72.c]
- Nauc @ 10 μM: ++ (NAUC “++” refers to an observed NAUC 170-140% of positive control)

SMILES: O=C(Nc1cc(Cl)cc(Cl)c1)C1C(C(F)(F)c2ccc(C(F)(F)F)cc2)NC2(C(=O)Nc3c(Cl)cc(Cl)cc32)C1C(=O)O (stereo not shown) [Example 73.a]
- Nauc @ 10 μM: + (NAUC “+” refers to an observed NAUC <140% of positive control)

SMILES: O=C(Nc1cc(Cl)cc(Cl)c1)C1C(C(F)(F)c2ccc(C(F)(F)F)cc2)NC2(C(=O)Nc3c(Cl)cc(Cl)cc32)C1C(=O)O (stereo not shown) [Example 73.b]
- Nauc @ 10 μM: + (NAUC “+” refers to an observed NAUC <140% of positive control)

SMILES: O=C(Nc1cc(Cl)cc(Cl)c1)C1C(C(F)(F)c2ccc(C(F)(F)F)cc2)NC2(C(=O)Nc3c(Cl)cc(Cl)cc32)C1C(=O)O (stereo not shown) [Example 73.c]
- Nauc @ 1 μM: + (NAUC “+” refers to an observed NAUC <140% of positive control)
- Nauc @ 3 μM: + (NAUC “+” refers to an observed NAUC <140% of positive control)
- Nauc @ 10 μM: +++ (NAUC “+++” refers to an observed NAUC>170% of positive control)

SMILES: O=C(Nc1cc(Cl)cc(Cl)c1)C1C(C(F)(F)c2cccnc2)NC2(C(=O)Nc3c(Cl)cc(Cl)cc32)C1C(=O)O (stereo not shown) [Example 74.a]
- Nauc @ 10 μM: + (NAUC “+” refers to an observed NAUC <140% of positive control)

SMILES: O=C(Nc1cccc(O)c1)C1C2CC(F)(F)CN2C2(C(=O)Nc3c(Cl)cc(Cl)cc32)C1C(=O)O (stereo not shown) [Example 76.a]
- Nauc @ 10 μM: + (NAUC “+” refers to an observed NAUC <140% of positive control)

SMILES: O=C(Nc1ccc(O)cc1)C1C2CC(F)(F)CN2C2(C(=O)Nc3c(Cl)cc(Cl)cc32)C1C(=O)O (stereo not shown) [Example 77.a]
- Nauc @ 10 μM: + (NAUC “+” refers to an observed NAUC <140% of positive control)
